According to ChEMBL document CHEMBL1201862, “PubChem BioAssay data set” (2004):
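Exposure lasted 48 hours, with cells grown in 96-well plates and compounds tested at five concentrations. GI50: concentration for 50% inhibition of growth.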 The source made the active and inactive calls. Cut-off read from the data, not from the text of the source: active = GI50 up to about 1.1 µM and inactive = higher.

Key:
Experiment in all cases: growth of human tumour cells (NCI), 48 h
[1] = system: A498
[2] = system: A549
[3] = system: COLO 205
[4] = system: HCT-116
[5] = system: HCT-15
[6] = system: HL-60
[7] = system: HT-29
[8] = system: Hs-578T
[9] = system: KM12
[10] = system: LOX IMVI
[11] = system: OVCAR-5
[12] = system: RPMI-8226
[13] = system: SF-268
[14] = system: SK-MEL-28
[15] = system: SN12C
[16] = system: T47D
[17] = system: TK-10
[18] = system: U-251
[19] = system: UACC-257

Structure (SMILES) | GI50 [1] | GI50 [2] | GI50 [3] | GI50 [4] | GI50 [5] | GI50 [6] | GI50 [7] | GI50 [8] | GI50 [9] | GI50 [10] | GI50 [11] | GI50 [12] | GI50 [13] | GI50 [14] | GI50 [15] | GI50 [16] | GI50 [17] | GI50 [18] | GI50 [19]
CCOP(=O)(OCC)/C(C#N)=C/c1c(C)[nH]c2ccccc12 | > 100 µM (inactive) | > 100 µM (inactive) | > 100 µM (inactive) | > 100 µM (inactive) | > 100 µM | > 100 µM (inactive) | > 100 µM (inactive) | > 100 µM (inactive) | > 100 µM (inactive) | > 100 µM (inactive) | > 100 µM (inactive) | > 100 µM (inactive) | > 100 µM (inactive) | > 100 µM (inactive) | > 100 µM (inactive) | > 100 µM (inactive) | > 100 µM (inactive) | > 100 µM (inactive) | > 100 µM (inactive)
COc1cc(C2c3cc4c(cc3OC(N3CCOCC3)C2C)OCO4)ccc1O (centres undefined) | 17.6 µM (inactive) | 13.4 µM (inactive) | 25.3 µM (inactive) | 8.34 µM (inactive) | 4.98 µM | 3.72 µM (inactive) | 23.4 µM (inactive) | 6.55 µM (inactive) | 7.83 µM (inactive) | 11.8 µM (inactive) | > 76.2 µM (inactive) | 4.22 µM (inactive) | 35.2 µM (inactive) | 34.1 µM (inactive) | 40 µM (inactive) | 10.3 µM (inactive) | 36.5 µM (inactive) | 14.5 µM (inactive) | 40.7 µM (inactive)
C(=C(c1ccc(OC2CCCCO2)cc1)c1ccc(OC2CCCCO2)cc1)c1ccccc1 (centres undefined) | 1.31 µM (inactive) | 0.522 µM (active) | 0.583 µM (active) | 0.412 µM (active) | 0.8 µM | 0.233 µM (active) | 0.386 µM (active) | 1.13 µM (inactive) | 0.156 µM (active) | 0.232 µM (active) | 1.06 µM (active) | 0.294 µM (active) | 1.09 µM (active) | 1.04 µM (active) | 1.02 µM (active) | 0.526 µM (active) | 1.14 µM (inactive) | 0.792 µM (active) | 0.378 µM (active)
O[C@H]1[C@H]2c3cc4c(cc3CN3CCC(=C[C@@H]1O)[C@H]23)OCO4 [LYCORINE] | 2.96 µM (inactive) | 1.39 µM (inactive) | 1.25 µM (inactive) | 1.26 µM (inactive) | 1.33 µM | 2.14 µM (inactive) | 1.46 µM (inactive) | 2.91 µM (inactive) | 2.7 µM (inactive) | 0.971 µM (active) | 2.5 µM (inactive) | 2.01 µM (inactive) | 0.802 µM (active) | 2.7 µM (inactive) | 1.7 µM (inactive) | 2.49 µM (inactive) | 2.67 µM (inactive) | 1.99 µM (inactive) | 0.65 µM (active)
COc1cccc(/C=C\c2ccc(O)cc2)c1 | 28.3 µM (inactive) | 16.9 µM (inactive) | 48.1 µM (inactive) | 22.7 µM (inactive) | 23.7 µM | 0.151 µM (active) | 21.3 µM (inactive) | 19.7 µM (inactive) | 1.4 µM (inactive) | 14.9 µM (inactive) | 62.8 µM (inactive) | 22.4 µM (inactive) | 28.2 µM (inactive) | 40.1 µM (inactive) | 22.9 µM (inactive) | 18.7 µM (inactive) | 52.4 µM (inactive) | 11.2 µM (inactive) | 26.7 µM (inactive)
Cc1cn(C2CCC(CO)(CF)O2)c(=O)[nH]c1=O (centres undefined) | > 100 µM (inactive) | > 100 µM (inactive) | > 100 µM (inactive) | > 100 µM (inactive) | > 100 µM | > 100 µM (inactive) | > 100 µM (inactive) | > 100 µM (inactive) | > 100 µM (inactive) | > 100 µM (inactive) | > 100 µM (inactive) | > 100 µM (inactive) | > 100 µM (inactive) | > 100 µM (inactive) | > 100 µM (inactive) | > 100 µM (inactive) | > 100 µM (inactive) | > 100 µM (inactive) | > 100 µM (inactive)
COc1ccccc1N(CN1C(=O)CCC1C(=O)O)C(C)=O (centres undefined) | > 100 µM (inactive) | > 100 µM (inactive) | > 100 µM (inactive) | > 100 µM (inactive) | > 100 µM | > 100 µM (inactive) | > 100 µM (inactive) | > 100 µM (inactive) | > 100 µM (inactive) | > 100 µM (inactive) | > 100 µM (inactive) | > 100 µM (inactive) | 53 µM (inactive) | > 100 µM (inactive) | > 100 µM (inactive) | > 100 µM (inactive) | > 100 µM (inactive) | > 100 µM (inactive) | > 100 µM (inactive)
c1ccc(CSCCc2ccncc2)cc1 | > 100 µM (inactive) | > 100 µM (inactive) | > 100 µM (inactive) | > 100 µM (inactive) | > 100 µM | 50.8 µM (inactive) | > 100 µM (inactive) | > 100 µM (inactive) | > 100 µM (inactive) | > 100 µM (inactive) | > 100 µM (inactive) | 49.9 µM (inactive) | > 100 µM (inactive) | > 100 µM (inactive) | > 100 µM (inactive) | 90.6 µM (inactive) | > 100 µM (inactive) | > 100 µM (inactive) | 53 µM (inactive)
COc1c2c3c4c(c(OC)c(=O)c5c(O)cc(OC)c(c6c(OC)cc(O)c(c1=O)c63)c54)C(C(C)O)C2C(C)O (centres undefined) | 0.918 µM (active) | 0.735 µM (active) | 0.789 µM (active) | 0.847 µM (active) | 1.2 µM | 0.392 µM (active) | 1.16 µM (inactive) | 0.855 µM (active) | 0.873 µM (active) | 0.883 µM (active) | 1.28 µM (inactive) | 0.706 µM (active) | 1.07 µM (active) | 0.953 µM (active) | 0.92 µM (active) | 1.18 µM (inactive) | 1.72 µM (inactive) | 0.405 µM (active) | 0.792 µM (active)
Nc1cccc2nsnc12 | > 100 µM (inactive) | > 100 µM (inactive) | 29.3 µM (inactive) | > 100 µM (inactive) | > 76.7 µM | 3.31 µM (inactive) | > 100 µM (inactive) | > 100 µM (inactive) | 20.7 µM (inactive) | > 53.1 µM (inactive) | > 100 µM (inactive) | 17.8 µM (inactive) | > 86.3 µM (inactive) | > 100 µM (inactive) | > 100 µM (inactive) | 49.1 µM (inactive) | > 100 µM (inactive) | > 100 µM (inactive) | > 100 µM (inactive)
CC1=NNC(=O)C1C1C(=O)NN=C(c2c[nH]c3ccccc23)C1Br (centres undefined) | > 100 µM (inactive) | 41.8 µM (inactive) | 33.8 µM (inactive) | 35.7 µM (inactive) | > 100 µM | 37.3 µM (inactive) | 35.3 µM (inactive) | 28 µM (inactive) | 16.6 µM (inactive) | 62.1 µM (inactive) | > 100 µM (inactive) | 40.7 µM (inactive) | 32.7 µM (inactive) | 69 µM (inactive) | > 100 µM (inactive) | 42.1 µM (inactive) | > 100 µM (inactive) | 38.3 µM (inactive) | > 100 µM (inactive)
